Columns and labels:
Assay type in all cases: cell-based, human
786-O [1] = assay: ATP luminescence proliferation assay, 786-O
Procedure: (§1) This example generally describes the procedures used to assay the antiproliferative activity of compounds of this invention or their conjugates. Human tumor cell lines were obtained from the American Type Culture Collection (ATCC), P.O. Box 1549, Manassas, Va. 20108, USA, and cultured according to instruction from the ATCC. Cells were seeded at 1.0×10^3 or 1.0×10^4 cells/well in 96-well plates for 3 h for ATP assays or ^3H thymidine assays, respectively. 1:3 serial dilutions of free (unconjugated) compounds or their conjugates were added to the wells. Plates were allowed to incubate for 24 to 72 h. The ^3H thymidine plates were pulsed with 1.0 μCi of ^3H-thymidine per well for the last 24 hours of the total incubation period, harvested, and read on a Top Count Scintillation Counter (Packard Instruments, Meriden, Conn.). ATP levels in the ATP plates were measured using the […]-GLO® Luminescent Cell Viability kit following the manufacturer's manual and read on a GLOMAX® 20/20 luminometer (both from Promega, Madison, Wis., USA). The EC50 values—the concentration at which an agent inhibits or reduces cell proliferation by 50% —were determined using PRISM™ software, version 4.0 (GraphPad Software, La Jolla, Calif., USA).
(§2) Using the ^3H thymidine or the ATP luminescence assay, or both, the activities of compounds of this invention were assayed against the following cancer cell lines: HCT-15 (colorectal cancer, multi-drug resistant (MDR)); Hep3B (liver cancer); LNCaP (prostate cancer, androgen receptor positive (AR^+)); MDA-MB-231 (breast cancer, estrogen receptor, progesterone receptor, and Her2 negative (triple negative)); A2058 (melanoma); U-87 MG (glioblastoma); NCI-H460 (NSCLC); A549 (NSCLC); HPAC (pancreatic cancer, primary); PC3 (prostate cancer, AR); BT474 (breast cancer, Her2 highly positive (Her2hi)); SKOV3 (ovarian cancer, Her2hi); 786-O (renal cancer); UO-31 (renal cancer, MDR); NCI-H740 (SCLC); DMS53 (SCLC); SK-BR3 (breast cancer, Her2hi); ZR-75 (breast cancer, estrogen receptor positive); OVCAR3 (ovarian cancer); HL-60 (APL); OVCAR8/Adr (ovarian cancer, MDR); CEM-Cl (ALL); Nomo-1 (AML); RPMI-8226 (MM)); Raji (lymphoma); SW-480 (colorectal cancer, metastatic); SW-620 (colorectal cancer); and H226 (lung cancer). (Not all compounds were assayed against all cell lines.)
(§3) FIGS. 12a and 12b show illustrative plots for ATP luminescence proliferation assays for a second set of compounds of this invention, against HL-60 and 786-O cells, respectively, with an incubation period of 72 h. FIGS. 12c and 12d show the plots for ^3H thymidine proliferation assays for the same set of compounds, again against HL-60 and 786-O cells, respectively, with a 72 h incubation period. In each instance, doxorubicin was used as a comparative compound.
(§4) Table 3 provides the data for the ATP luminescence proliferation assays, with an incubation period of 48, 72, or 96 h, as noted.

HL-60 [2] = assay: ATP luminescence proliferation assay, HL-60
Procedure: as §1, §2, §3, §4

OVCAR3 [3] = assay: ATP luminescence proliferation assay, OVCAR3; details: ATP luminescence, OVCAR3, 48 h incubation; read-out: EC50 OVCAR3 (48 h)
Procedure: as §1, §2, §4

OVCAR8/Adr = assay: ATP luminescence proliferation assay, OVCAR8/Adr; details: 48 h incubation period, read-out: EC50 against the OVACAR8/Adr cell line
Procedure: as §1, §2, §4

HCT-15 [4] = assay: ATP luminescence proliferation assay, HCT-15; details: ATP luminescence, HCT-15, 72 h incubation; read-out: EC50 HCT-15 (72 h)
Procedure: as §1, §2, §4

H226 = assay: ATP luminescence proliferation assay, H226; details: 72 h incubation period, read-out: EC50 against the H226 cell line
Procedure: as §1, with “The EC50 values—the concentration at which an agent inhibits or reduces cell proliferation by 50% —were determined using PRISM™ software, version 4.0 (GraphPad Software, La Jolla, Calif., USA).” left out
as §2, with “(Not all compounds were assayed against all cell lines.)” left out

786-O [5] = assay: 3H thymidine proliferation assay, 786-O; details: Homo sapiens, 786-0, read-out: EC50, 786-O, 3H thymidine method, 72 h incubation
Procedure: as §1, §2
(§5) Table 2 provides the data for proliferation assays using the ^3H thymidine method, with an incubation period of 72 h.

HL-60 [6] = assay: 3H thymidine proliferation assay, HL-60; details: Homo sapiens, HL-60, read-out: EC50, HL-60, 3H thymidine method, 72 h incubation
Procedure: as §1, §2, §5

OVCAR3 [7] = assay: 3H thymidine proliferation assay, OVCAR3; details: Homo sapiens, OVCAR-3, read-out: EC50, OVCAR3, 3H thymidine method, 72 h incubation
Procedure: as §1, §2, §5

A549 = assay: 3H thymidine proliferation assay, A549; details: Homo sapiens, A549, read-out: EC50, A549, 3H thymidine method, 72 h incubation
Procedure: as §1, §2, §5

HCT-15 [8] = assay: 3H thymidine proliferation assay, HCT-15; details: Homo sapiens, HCT-15, read-out: EC50, HCT-15, 3H thymidine method, 72 h incubation
Procedure: as §1, §2, §5

U-87 MG = assay: 3H thymidine proliferation assay, U-87 MG; details: Homo sapiens, U-87 MG, read-out: EC50, U-87 MG, 3H thymidine method, 72 h incubation
Procedure: as §1, §2, §5

Raji = assay: 3H thymidine proliferation assay, Raji; details: Homo sapiens, Raji, read-out: EC50, Raji, 3H thymidine method, 72 h incubation
Procedure: as §1, §2, §5

CEM-C1 = assay: 3H thymidine proliferation assay, CEM-C1; details: Homo sapiens, CEM/C1, read-out: EC50, CEM-C1, 3H thymidine method, 72 h incubation
Procedure: as §1, §2, §5

RPMI-8226 = assay: 3H thymidine proliferation assay, RPMI-8226; details: Homo sapiens, RPMI-8226, read-out: EC50, RPMI-8226, 3H thymidine method, 72 h incubation
Procedure: as §1, §2, §5

OVCAR8 = assay: 3H thymidine proliferation assay, OVCAR8; details: Homo sapiens, OVCAR-8, read-out: EC50, OVCAR8, 3H thymidine method, 72 h incubation
Procedure: as §1, §2, §5

LNCaP = assay: 3H thymidine proliferation assay, LNCaP; details: Homo sapiens, LNCaP, read-out: EC50, LNCaP, 3H thymidine method, 72 h incubation
Procedure: as §1, §2, §5

SKOV3 = assay: 3H thymidine proliferation assay, SKOV3; details: Homo sapiens, SK-OV-3, read-out: EC50, SKOV3, 3H thymidine method, 72 h incubation
Procedure: as §1, §2, §5

BT474 = assay: 3H thymidine proliferation assay, BT474; details: Homo sapiens, BT-474, read-out: EC50, BT474, 3H thymidine method, 72 h incubation
Procedure: as §1, §2, §5

DMS53 = assay: 3H thymidine proliferation assay, DMS53; details: Homo sapiens, DMS-53, read-out: EC50, DMS53, 3H thymidine method, 72 h incubation
Procedure: as §1, §2, §5

MDA-MB-231 = assay: 3H thymidine proliferation assay, MDA-MB-231; details: Homo sapiens, MDA-MB-231, read-out: EC50, MDA-MB-231, 3H thymidine method, 72 h incubation
Procedure: as §1, §2, §5

SK-BR3 = assay: 3H thymidine proliferation assay, SK-BR3; details: Homo sapiens, SK-BR-3; 3H thymidine method, 72 h incubation
Procedure: as §1, §2, §5

ZR-75 = assay: 3H thymidine proliferation assay, ZR-75; details: Homo sapiens, ZR75, read-out: EC50, ZR-75, 3H thymidine method, 72 h incubation
Procedure: as §1, §2, §5

HPAC = assay: 3H thymidine proliferation assay, HPAC; details: Homo sapiens, HPAC, read-out: EC50, HPAC, 3H thymidine method, 72 h incubation
Procedure: as §1, §2, §5

PC3 = assay: 3H thymidine proliferation assay, PC3; details: Homo sapiens, PC-3, read-out: EC50, PC3, 3H thymidine method, 72 h incubation
Procedure: as §1, §2, §5

Nomo-1 = assay: 3H thymidine proliferation assay, Nomo-1; details: Homo sapiens, NOMO-1, read-out: EC50, Nomo-1, 3H thymidine method, 72 h incubation
Procedure: as §1, §2, §5

NCI-H460 = assay: 3H thymidine proliferation assay, NCI-H460; details: Homo sapiens, NCI-H460, read-out: EC50, NCI-H460, 3H thymidine method, 72 h incubation
Procedure: as §1, §2, §5

UO-31 = assay: 3H thymidine proliferation assay, UO-31; details: Homo sapiens, UO-31, read-out: EC50, UO-31, 3H thymidine method, 72 h incubation
Procedure: as §1, §2, §5

Hep3B = assay: 3H thymidine proliferation assay, Hep3B; details: Homo sapiens, Hep3B, read-out: EC50, Hep3B, 3H thymidine method, 72 h incubation
Procedure: as §1, §2, §5

H740 = assay: 3H thymidine proliferation assay, H740; details: Homo sapiens, read-out: EC50, H740, 3H thymidine method, 72 h incubation
Procedure: as §1, §2, §5

A2058 = assay: 3H thymidine proliferation assay, A2058; details: Homo sapiens, A2058; 3H thymidine method, 72 h incubation
Procedure: as §1, §2, §5

[9] = ATP luminescence, 786-O, 72 h incubation, read-out: EC50 786-O (72 h)
[10] = ATP luminescence, HL-60, 48 h incubation, read-out: EC50 HL-60 (48 h)
[11] = ATP luminescence, 786-O, 48 h incubation, read-out: EC50 786-O (48 h)

CCCOCN(C(=O)[C@@H](NC(=O)[C@H]1CCCCN1C)[C@@H](C)CC)[C@H](C[C@@H](OC)c1nc(C(=O)N[C@@H](Cc2ccc(N)cc2)CC(C)C(=O)OCC)cs1)C(C)C (stereo partly shown) [Compound 135]
EC50 (786-O [1]; [9]): 12.9 nM

CC[C@H](C)[C@H](NC(=O)[C@H]1CCCCN1C)C(=O)N(C)[C@H](C[C@@H](OC(C)=O)c1nc(C(=O)N[C@@H](Cc2ccc(N)cc2)C[C@H](C)C(=O)O)cs1)C(C)C [Compound 84a]
EC50 (HL-60 [2]; [10]): 10 to 28 nM | EC50 (OVCAR3 [3]): 8.19 nM | EC50 (OVCAR8/Adr): > 300 nM | EC50 (HCT-15 [4]): 138 nM | EC50 (786-O [1]; [11]): 6.12 nM

CC[C@H](C)[C@H](NC(=O)[C@H]1CCCCN1C)C(=O)N(C)[C@H](C[C@@H](OC(C)=O)c1nc(C(=O)N[C@@H](Cc2ccc(N)cc2)C[C@@H](C)C(=O)O)cs1)C(C)C [Compound 84b]
EC50 (HL-60 [2]; [10]): 16 to 27 nM | EC50 (OVCAR3 [3]): 4.91 nM | EC50 (OVCAR8/Adr): 47.2 nM | EC50 (HCT-15 [4]): 22.8 nM | EC50 (786-O [1]; [11]): 4.1 nM

CC[C@H](C)[C@H](NC(=O)[C@H]1CCCCN1C)C(=O)N(C)[C@H](C[C@@H](OC(C)=O)c1nc(C(=O)N[C@@H](Cc2ccc(N)cc2)CC(C)C(=O)OC)cs1)C(C)C (stereo partly shown) [Compound 36a]
EC50 (H226): 0.307 nM | EC50 (HL-60 [2]; [10]): 0.048 nM | EC50 (OVCAR8/Adr): 17.1 nM | EC50 (786-O [1]; [9]): 0.434 nM

CCOC(=O)C(C)C[C@H](Cc1ccc(N)cc1)NC(=O)c1csc([C@@H](C[C@H](C(C)C)N(COC(=O)CC(C)C)C(=O)[C@@H](NC(=O)[C@H]2CCCCN2C)[C@@H](C)CC)OC)n1 (stereo partly shown) [Compound 133]
EC50 (786-O [1]; [9]): 4.17 nM

CC[C@H](C)[C@H](NC(=O)[C@H]1CCCCN1C)C(=O)N(COC)[C@H](C[C@@H](OC(C)=O)c1nc(C(=O)N[C@@H](Cc2ccccc2)C(=O)OC)cs1)C(C)C [(III-q)]
EC50 (786-O [5]): 7.61 nM | EC50 (HL-60 [6]): 15.1 nM | EC50 (HL-60 [2]; Homo sapiens, HL-60, 72 h, read-out: EC50 HL-60 (72 h), ATP luminescence, HL-60, 72 h incubation): 14.3 nM | EC50 (786-O [1]; Homo sapiens, 786-0, 72 h, read-out: EC50 786-O (72 h), ATP luminescence, 786-O, 72 h incubation): 104 nM

CC[C@H](C)[C@H](NC(=O)[C@H]1CCCCN1C)C(=O)N(C)[C@H](C[C@@H](OC)c1nc(C(=O)N[C@@H](C)C(=O)N[C@@H](Cc2ccccc2)C(=O)OC)cs1)C(C)C [Compound 26a]
EC50 (OVCAR3 [7]): 21 nM | EC50 (A549): > 100 nM | EC50 (786-O [5]): > 100 nM | EC50 (HL-60 [6]): 10 nM | EC50 (HCT-15 [8]): > 100 nM | EC50 (U-87 MG): 71 nM | EC50 (Raji): 20 nM | EC50 (CEM-C1): 10 nM | EC50 (RPMI-8226): 22 nM | EC50 (OVCAR8): 100 nM | EC50 (LNCaP): 80 nM | EC50 (SKOV3): 47 nM | EC50 (BT474): 7 nM | EC50 (DMS53): > 100 nM | EC50 (MDA-MB-231): > 100 nM | EC50 (SK-BR3): 158 nM | EC50 (ZR-75): 56 nM | EC50 (HPAC): > 100 nM | EC50 (PC3): > 100 nM | EC50 (Nomo-1): 2 nM | EC50 (NCI-H460): > 100 nM | EC50 (UO-31): > 100 nM | EC50 (Hep3B): 36 nM | EC50 (H740): 3.2 nM | EC50 (A2058): > 100 nM

CCOC(=O)C(C)C[C@H](Cc1ccc(N)cc1)NC(=O)c1csc([C@@H](C[C@H](C(C)C)N(COC)C(=O)[C@@H](NC(=O)[C@H]2CCCCN2C)[C@@H](C)CC)OC)n1 (stereo partly shown) [Compound 134]
EC50 (786-O [1]; [9]): 9.89 nM

Source: patent publication US20130204033A1, “ANTIPROLIFERATIVE COMPOUNDS, CONJUGATES THEREOF, METHODS THEREFOR, AND USES THEREOF” (Medarex, Inc., priority 2009, published 2013)
